Reference: US7786142B2, “Heterocyclic compounds as pSTAT3/IL-6 inhibitors” (Orchid Research Laboratories, Ltd., priority 2005, dated 2010)
“Also recorded” adds a separate entry of the source.

Experiments:
NCI H460 Xenograft = test: In-vivo anti-cancer activity, NCI H460 xenograft model; design: species or system SCID mice; conditions: NCI H460 Xenograft model, in words
Procedure: Experiments were carried out using 6-8 week old female athymic SCID (Severe Combined Immune Deficient) mice. The mice were kept in laminar flow rooms (housed in Individually Ventilated Cages) at constant temperature and humidity. They had free access to food and water. Tumors were obtained form ATCC and maintained by s.c. passages of tumor fragments (about 2×2×2 mm) in healthy mice according to standard reported procedures. Each experimental group included six/eight mice bearing bilateral tumors. Tumors were implanted on day 0, and tumor growth was followed by biweekly measurements of tumor diameters with a Vernier caliper. Tumor Volume (TV) was calculated according to the following formula: TV (mm^3)=d^2 XD/2, where d and D are the shortest diameter and the longest diameter of the tumor, respectively. The drug treatment started when tumors were just measurable (Mean TV=150-200 mm^3).
All test compound/standard drugs were delivered by gavage in a volume of 10 ml/kg. Drugs were administered every day for single time to a period of 21 days. Control mice were treated with the drug solvent/vehicle. Tumor size is measured every alternate days and body weight is recorded daily.
• a) Tumor Volume Inhibition (TVI): A TVI value higher than 80% is indicative of active compounds. • b) T/C % is also another indicator for the activity. A reproducible 20% T/C is considered as therapeutically active. • c) Log Cell Kill (LCK): A LCK value greater than 1 is indicative of active compounds. • d) Relative Tumor Volume (RTV), Tumor Delay and % Tumor volume change are also considered as valuable additional parameters for assessment. • e) Toxic effects of drug treatment were assessed by Body Weight Loss % • f) Lethal toxicity was defined as any death in treated groups occurring before any control death. Mice were inspected daily for mortality and toxic clinical signs.

pSTAT3 = pSTAT3 inhibition (Western blot in DU 145 / SKOV-3 cells; ELISA in HepG2 cells); type: cell-based; conditions: in words; FIGS. 1 and 2
Procedure: Western blot analysis was performed as described by Kammer W et. al (J Biol Chem 271, 23634-23637, and J Biol Chem 273, 31222-31229). Briefly, 60 μg of whole cell extract was solubilized in Laemmeli buffer (50 mM Tris/HCl, pH 6.8, 2% SDS, 10% glycerol, 1 mM DTT, 1× Protease inhibitor cocktail, SET-3 (Calbiochem), 1 mM Sodium Ortho-vanadate) boiled for 5-10 minutes, and separated on a 10 or 12% acrylamide SDS gel. After protein transfer, the nitrocellulose membranes were blocked in blocking buffer for 2 hour (1×TBS, 0.1% Tween-20, 5% BSA). Membranes were incubated for 20 hours in blocking buffer containing, STAT3 P-Tyr705 (Santa Cruz Biotech), STAT3 (H-190, Santa Cruz Biotech) and Actin (C-2, Santa Cruz Biotech) antibody at 1:300 dilution. Detection was performed with HRP conjugated antimouse/antirabbit IgG (Santa Cruz Biotech) at a dilution of 1:3,000 for 1 hour. Visualization was performed using an Enhanced Chemiluminescence detection kit (Amersham). See Appended Diagrams: FIGS. 1 and 2. […]
Capture Antibody was diluted to a working concentration of 2.0 μg/mL in PBS. […] The plates were made ready after 2-3 washes with wash buffer. […] The reaction was stopped by adding 50 μl of stop solution to each well and the OD was determined using a microplate reader at 450 nm.

[1] = tested on: NCIH460, HCT116, MDAMB-231/U 251; test: Anti-cancer screen, mean GI50 over the cell lines; type: cell-based
Summary of the method: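 Cells (5000/well) in DMEM with 10% FBS were treated for 48 hours with 0.01, 0.1, 1, 10 and 100 μM compound in triplicate. MTT read at 570 nm gave percent growth relative to untreated controls and pre-dose T0 wells, from which GI50, TGI and LC50 were derived.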

`COc1ccc(CNC[C@H](O)COc2cccc3[nH]c4ccccc4c23)c(OC)c1` [Example 25, (2S)-1-(9H-carbazol-4-yloxy)-3-[(2,4-dimethoxybenzyl)amino]propan-2-ol] was tested, and the in-vivo anti-cancer activity (NCI H460 Xenograft) was “good anti-cancer activity”, the pSTAT3 inhibition (pSTAT3) was “work through pSTAT3 inhibition; also recorded: operates through pSTAT3 inhibition” and the GI50 [1] was 6.4 µM.
